Results from ChEMBL document CHEMBL3351264, “Piperazinyl-oxadiazoles as selective sphingosine-1-phosphate receptor agonists” (Bioorg Med Chem Lett, 2014).

Key:
[1] = target: Sphingosine 1-phosphate receptor 1 (Homo sapiens, UniProt P21453); assay: Agonist activity at human S1P1 receptor expressed in human EDG1-bla U2OS cells after 18 hrs by beta-arrestin recruitment assay; format: cell-based
[2] = target: T1, Sphingosine 1-phosphate receptor 3 (Homo sapiens, UniProt Q99500); assay: Agonist activity at human S1P3 receptor expressed in human EDG3-bla U2OS cells after 18 hrs by beta-arrestin recruitment assay; format: cell-based
T1 sequence (Q99500 whole entry): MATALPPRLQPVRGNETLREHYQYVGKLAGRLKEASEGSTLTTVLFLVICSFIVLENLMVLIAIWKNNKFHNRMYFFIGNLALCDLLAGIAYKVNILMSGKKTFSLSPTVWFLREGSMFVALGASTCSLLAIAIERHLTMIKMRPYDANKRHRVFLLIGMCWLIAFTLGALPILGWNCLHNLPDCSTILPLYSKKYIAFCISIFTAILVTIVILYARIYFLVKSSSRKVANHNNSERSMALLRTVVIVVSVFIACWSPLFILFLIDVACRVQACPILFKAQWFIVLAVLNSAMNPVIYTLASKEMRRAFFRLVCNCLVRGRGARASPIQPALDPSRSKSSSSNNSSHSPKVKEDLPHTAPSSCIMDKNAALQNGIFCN

[3] = target: T1, Sphingosine 1-phosphate receptor 3; assay: Partial agonist activity at human S1P3 receptor expressed in human EDG3-bla U2OS cells after 18 hrs by beta-arrestin recruitment assay; format: cell-based
Homo sapiens = species: Homo sapiens; assay: Selectivity ratio of EC50 for human S1P3 receptor to EC50 for human S1P1 receptor
Plasma [4] = assay: Drug level in rat plasma treated with 3 mg/kg, po; format: ADME, organism-based; design: dose 3 mg/kg, route oral; settings: in vivo
Rattus norvegicus = assay: Toxicity in Lewis rat assessed as reduction in circulating lymphocyte count at 3 mg/kg, po after 4 hrs; format: organism-based; design: dose 3 mg/kg, route oral; settings: in vivo
Plasma [5] = assay: Drug metabolism in rat plasma assessed as 2-amino-3-(5-chloro-4-(3-(4-(cyclopentanecarbonyl)piperazin-1-yl)-1,2,4-oxadiazol-5-yl)-2-fluorophenoxy)propyl dihydrogen phosphate formation at 3 mg/kg, po; format: ADME, organism-based; design: dose 3 mg/kg, route oral; settings: in vivo

Sphingosine 1-phosphate receptor 1, sequence (P21453 whole entry): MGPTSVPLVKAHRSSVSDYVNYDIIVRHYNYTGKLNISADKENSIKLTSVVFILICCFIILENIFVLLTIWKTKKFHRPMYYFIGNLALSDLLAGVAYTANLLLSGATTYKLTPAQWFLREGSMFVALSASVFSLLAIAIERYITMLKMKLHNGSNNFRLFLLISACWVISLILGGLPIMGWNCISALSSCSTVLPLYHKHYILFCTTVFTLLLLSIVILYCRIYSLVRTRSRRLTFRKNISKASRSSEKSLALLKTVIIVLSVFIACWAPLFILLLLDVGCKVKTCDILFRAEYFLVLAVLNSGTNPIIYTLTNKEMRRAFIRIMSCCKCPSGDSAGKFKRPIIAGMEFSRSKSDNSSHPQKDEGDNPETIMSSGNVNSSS

EC50 [1]	EC50 [2]	SMILES	further results
1.1 µM	> 10 µM	C[C@H](O)COc1cc(Cl)c(-c2nc(N3CCN(C(=O)C4CC(C)(C)C4)CC3)no2)cc1F	–
0.046 µM	–	CCC(C)(C)C(=O)N1CCN(c2noc(-c3cc(F)c(OCC(N)CO)cc3Cl)n2)CC1 (configuration not stated)	–
0.0041 µM	> 10 µM	N[C@@H](CO)COc1cc(Cl)c(-c2nc(N3CCN(C(=O)c4cccc(Cl)c4)CC3)no2)cc1F	–
0.0065 µM	> 10 µM	N[C@@H](CO)COc1cc(Cl)c(-c2nc(N3CCN(C(=O)c4ccccc4)CC3)no2)cc1F	–
0.91 µM	> 10 µM	CC1(C)CC(C(=O)N2CCN(c3noc(-c4cc(F)c(OCCO)cc4Cl)n3)CC2)C1	–
1.2 µM	> 10 µM	CC1(C)CC(C(=O)N2CCN(c3noc(-c4cc(F)c(OC[C@H](O)CO)cc4Cl)n3)CC2)C1	–
0.0031 µM	0.45 µM	CC1(C)CC(C(=O)N2CCN(c3noc(-c4cc(F)c(OC[C@@H](N)CO)cc4Cl)n3)CC2)C1	%max [3]: 63%
2.4 µM	> 10 µM	N[C@H](CO)COc1cc(Cl)c(-c2nc(N3CCN(C(=O)c4cccc(Cl)c4)CC3)no2)cc1F	–
0.012 µM	> 10 µM	N[C@@H](CO)COc1cc(Cl)c(-c2noc(N3CCN(C(=O)c4cccc(Cl)c4)CC3)n2)cc1F	–
0.017 µM	> 10 µM	N[C@@H](CO)COc1cc(Cl)c(-c2nc(N3CCN(C(=O)C4CCC4)CC3)no2)cc1F	–
> 10 µM	> 10 µM	N[C@@H](CO)COc1c(Cl)cc(-c2nc(N3CCN(C(=O)C4CCCCC4)CC3)no2)cc1Cl	–
1.3 µM	> 10 µM	N[C@H](CO)COc1cc(Cl)c(-c2nc(N3CCN(C(=O)C4CCC4)CC3)no2)cc1F	–
0.24 µM	> 10 µM	O=C(O)CCOc1cc(Cl)c(-c2nc(N3CCN(C(=O)C4CCCC4)CC3)no2)cc1F	–
0.0005 µM	0.94 µM	N[C@H](COc1cc(Cl)c(-c2nc(N3CCN(C(=O)C4CCCC4)CC3)no2)cc1F)COP(=O)(O)O	Ratio EC50 (Homo sapiens): 2000; Drug metabolism (Plasma [4]): metabolite_detected
> 10 µM	> 10 µM	CC1(C)CC(C(=O)N2CCN(c3noc(-c4cc(F)c(OCC(=O)O)cc4Cl)n3)CC2)C1	–
0.0053 µM	> 10 µM	CCc1cccnc1C(=O)N1CCN(c2noc(-c3cc(F)c(OC[C@@H](N)CO)cc3Cl)n2)CC1	–
> 5.4 µM	> 10 µM	N[C@@H](CO)COc1c(Cl)cc(-c2nc(N3CCN(C(=O)c4cccc(Cl)c4)CC3)no2)cc1Cl	–

EC50 [1]	EC50 [2]	SMILES	further results
0.0012 µM	> 10 µM	N[C@@H](CO)COc1cc(Cl)c(-c2nc(N3CCN(C(=O)C4CCCCC4)CC3)no2)cc1F	–
3.6 µM	–	CCC(C)(C)C(=O)N1CCN(c2noc(-c3ccccc3OC)n2)CC1	–
1.6 µM	> 10 µM	N[C@@H](CO)COc1c(Cl)cc(-c2nc(N3CCN(C(=O)C4CCCC4)CC3)no2)cc1Cl	–
2.7 µM	> 10 µM	CC1(C)CC(C(=O)N2CCN(c3noc(-c4cc(F)c(OCCC(=O)O)cc4Cl)n3)CC2)C1	–
0.092 µM	> 10 µM	N[C@@H](CO)COc1cc(Cl)c(-c2nc(N3CCN(C(=O)c4ccccn4)CC3)no2)cc1F	–
0.42 µM	> 10 µM	N[C@H](CO)COc1cc(Cl)c(-c2nc(N3CCN(C(=O)C4CCCC4)CC3)no2)cc1F	–
0.0005 µM	0.41 µM	N[C@@H](CO)COc1cc(Cl)c(-c2nnc(N3CCN(C(=O)C4CCCC4)CC3)s2)cc1F	%max [3]: 45%
0.0023 µM	0.38 µM	N[C@@H](CO)COc1cc(Cl)c(-c2nnc(N3CCN(C(=O)c4cccc(Cl)c4)CC3)s2)cc1F	%max [3]: 48%
1.1 µM	> 10 µM	CC1(C)CC(C(=O)N2CCN(c3noc(-c4cc(F)c(OC[C@@H](O)CO)cc4Cl)n3)CC2)C1	–
0.0098 µM	4.7 µM	CC(C)(C(=O)N1CCN(c2noc(-c3cc(F)c(OC[C@@H](N)CO)cc3Cl)n2)CC1)C(F)(F)F	%max [3]: 44%
0.055 µM	> 10 µM	N[C@@H](CO)COc1cc(Cl)c(-c2noc(N3CCN(C(=O)C4CCCC4)CC3)n2)cc1F	–
> 10 µM	> 10 µM	CC1(C)CC(C(=O)N2CCN(c3noc(-c4cc(F)c(OC[C@@H]5COC(=O)N5)cc4Cl)n3)CC2)C1	–
2.1 µM	> 10 µM	O=C(O)C1CN(Cc2cc(Cl)c(-c3nc(N4CCN(C(=O)C5CCCC5)CC4)no3)cc2F)C1	–
1.1 µM	> 10 µM	CC1(C)CC(C(=O)N2CCN(c3noc(-c4cc(F)c(OCCCO)cc4Cl)n3)CC2)C1	–
0.045 µM	> 10 µM	N[C@@H](CO)COc1cc(Cl)c(-c2noc(C3CCN(C(=O)C4CCCC4)CC3)n2)cc1F	–
0.0017 µM	> 10 µM	N[C@@H](CO)COc1cc(Cl)c(-c2nc(N3CCN(C(=O)C4CCCC4)CC3)no2)cc1F	Activity (Rattus norvegicus): Toxic; Drug metabolism (Plasma [5]): metabolite_detected
